Like-named read-outs stand apart in the source and are kept apart here.
Tested on: bacterial pool of seven organisms
Assay: Dow time-kill test in pH 7.4 hand dish-washing liquid, with Kull synergy index
Assay type: cell-based
Conditions: for Concentration required to achieve >=4 Log bacterial counts reduction: bacterial pool, pH 7.4 hand dish-washing liquid, 37° C., active ingredient basis
Method: Four biocides and their combinations were tested at different concentration ranges. […] All biocide solutions were prepared and diluted in sterile DI water and used within 2 hours. These biocides are commercially available from The Dow Chemical Company. [table] A bacteria pool was used for testing. 24 hr bacterial cultures were obtained in TSB (Tryptic Soy Broth) media at 37° C. incubation for the seven organisms. The bacterial pool of seven organisms was prepared by taking equal parts of a 24 hour stationary phase aliquot from each bacterial culture and mixing them together. […] The time-kill tests were carried out to determine the threshold concentration of the biocide products in pH 7.4 hand dish-washing liquid. […] Biocides were then added into this bacterial suspension at various levels and mixed immediately. The mixed samples were then incubated at 37° C. At 24 hrs, viable bacteria remaining in the hand dish-washing samples were determined by 1:10 serial dilutions, transferring 20 ul aliquot of each sample into 180 ul TSB/Resazurin media. Triplicate tests were conducted. MPN method was used to determine the microbial concentration at after 24 hours incubation at 37° C. […] One measure of synergism is the industrially accepted method described by Kull, […]. and Mayer, R. L., in Applied Microbiology 9:538-541 (1961), using the ratio determined by the formula: Qa/QA+Qb/QB=Synergy Index (“SI”) wherein: • QA=concentration of compound A (first component) in ppm, acting alone, which produced an end point (MIC of Compound A). • Qa=concentration of compound A in ppm, in the mixture, which produced an end point. • QB=concentration of compound B (second component) in ppm, acting alone, which produced an end point (MIC of Compound B). • Qb=concentration of compound B in ppm, in the mixture, which produced an end point. When the sum of Qa/QA and Qb/QB is greater than one, antagonism is indicated. […] The lower the SI, the greater the synergy shown by that particular mixture. The minimum inhibitory concentration (MIC) of a microbicide is the lowest concentration tested under a specific set of conditions that prevents the growth of added microorganisms.

Compound | Concentration required to achieve >=4 Log bacterial counts reduction (24 h) [ppm] | MIC (Bacterial Pool, 24 hours, BIT alone (QA) or BIT in mixture with SOPP (Qa), read-out: Minimum Inhibitory Concentration (ppm) BIT) [µg/mL] | MIC (24 h, read-out: Minimum Inhibitory Concentration (ppm) MIT) [µg/mL] | Minimum Inhibitory Concentration (ppm) SOPP (Bacterial Pool, 24 hours, SOPP alone (QB) or SOPP in mixture with BIT (Qb)) [ppm] | Minimum Inhibitory Concentration (ppm) SOPP (Bacterial Pool, 24 hours, SOPP alone (QB) or SOPP in mixture with CMIT/MIT (Qb)) [ppm] | Minimum Inhibitory Concentration (ppm) SOPP (Bacterial Pool, 24 hours, SOPP alone (QB) or SOPP in mixture with MIT (Qb)) [ppm]
O=c1[nH]sc2ccccc12 [BIT, 1,2-benzisothiazol-3-one] | 400 | 400 |  |  |  | 
Cn1sccc1=O [MIT, 2-Methylisothiazol-3-one] | >95 |  | > 95 |  |  | 
[Na+].[O-]c1ccccc1-c1ccccc1 [SOPP, sodium orthophenylphenate] | 358.5 |  |  | 358.5 | 358.5 | 358.5
